# ChEMBL document CHEMBL5338750, “Design of Sonosensitizers Integrated with Resveratrol Motif for Synergetic Sonodynamic Therapy and Nuclear Factor Kappa B Transcription Suppression of Breast Cancer” (J Med Chem, 2023)
# Activity calls are given as the source filed them. The rule behind the calls is not given here.
# How the values were obtained:
# [1] = tested on: MCF7; assay: Cytotoxicity against human MCF7 cells assessed as inhibition of cell growth preincubated for 72 hrs followed by ultrasonic sound treatment for 30 sec by MTT assay; assay type: functional, cell-based; conditions: for Activity: time 259230.0 sec
# [2] = Drug uptake in BALB/c mouse tumor xenografted with human MCF7 cells assessed as accumulation of red fluorescence at 1.5 mg/kg, iv measured at 6 hrs by fluorescence imaging analysis; assay type: ADME, organism-based, Neoplasm; conditions: in vivo
# [3] = tested on: MCF7; assay: Cytotoxicity against human MCF7 cells assessed as inhibition of cell growth incubated for 72 hrs by MTT assay; assay type: functional, cell-based; conditions: MCF7, 72 h
# [4] = tested on: MCF7; assay: Induction of ROS generation in human MCF7 cells assessed as increase in red fluorescence incubated for 4 hrs by Hoechst 33342 staining based confocal microscopic analysis; assay type: functional, cell-based
# [5] = tested on: MCF7; assay: Induction of ROS generation in human MCF7 cells assessed as […] preincubated for 4 hrs followed by ultrasonic sound treatment for 30 sec by DCFH-DA dye based inverted microscopy; assay type: functional, cell-based; conditions: time 14430.0 sec
# [6] = tested on: MCF7; assay: Induction of ROS generation in human MCF7 cells assessed as increase in ROS level incubated for 4 hrs by DCFH-DA dye based flow cytometry analysis (Rvb=2.9%); assay type: functional
# [7] = tested on: MCF7; assay: Induction of ROS generation in human MCF7 cells assessed as increase in ROS level preincubated for 4 hrs followed by ultrasonic sound treatment for 30 sec by DCFH-DA dye based flow cytometry analysis (Rvb= 3.5%); assay type: functional; conditions: time 14430 sec; 4.008 h
# [8] = Inhibition of LPS-stimulated NO production in mouse RAW264.7 cells incubated for 24 hrs by Griess reagent based microplate reader analysis; assay type: functional, cell-based; conditions: RAW264.7, 24 h
# [9] = Inhibition of LPS-stimulated NO production in mouse RAW264.7 cells at 10 uM incubated for 24 hrs by Griess reagent based microplate reader analysis relative to control; assay type: functional
# [10] = tested on: MCF7; assay: Cytotoxicity against human MCF7 cells assessed as inhibition of cell growth more than 1 uM measured for 72 hrs by MTT assay; assay type: functional, cell-based
# [11] = tested on: MCF7; assay: Effect of p38 protein level in human MCF7 cells at 10 uM measured for 24 hrs by ELISA analysis; assay type: functional, cell-based
# [12] = tested on: MCF7; assay: Effect of TNF-alpha protein level in human MCF7 cells at 10 uM measured for 24 hrs by ELISA analysis; assay type: functional, cell-based
# [13] = tested on: MCF7; assay: Effect of IL-6 protein level in human MCF7 cells at 10 uM measured for 24 hrs by ELISA analysis; assay type: functional, cell-based
# [14] = tested on: MCF7; assay: Sono-cytotoxicity against human MCF7 cells assessed as inhibition of cell growth preincubated for 4 hrs followed by ultrasonic sound treatment for 30 sec by MTT assay; assay type: functional, cell-based
# [15] = tested on: MCF7; assay: Sono-cytotoxicity against human MCF7 cells assessed as inhibition of cell growth preincubated for 4 hrs followed by ultrasonic sound treatment for 2 mins by MTT assay; assay type: functional, cell-based
# [16] = tested on: MCF7; assay: Sono-cytotoxicity against human MCF7 cells assessed as inhibition of cell growth preincubated for 4 hrs followed by ultrasonic sound treatment for 5 mins by MTT assay; assay type: functional, cell-based
# [17] = tested on: MCF7; assay: Induction of apoptosis in human MCF7 cells assessed as viable cells preincubated for 4 hrs followed by ultrasonic sound treatment for 30 sec and measured after 24 hrs by Annexin V-FITC/propidium iodide double staining based flow cytometry analysis (reference value: […]); assay type: functional; conditions: 28 h
# [18] = tested on: MCF7; assay: Induction of apoptosis in human MCF7 cells assessed as early apoptotic cells preincubated for 4 hrs followed by ultrasonic sound treatment for 30 sec and measured after 24 hrs by Annexin V-FITC/propidium iodide double staining based flow cytometry analysis (reference value: 1.83 %); assay type: functional; conditions: 28 h
# [19] = tested on: MCF7; assay: Induction of apoptosis in human MCF7 cells assessed as late apoptotic cells preincubated for 4 hrs followed by ultrasonic sound treatment for 30 sec and measured after 24 hrs by Annexin V-FITC/propidium iodide double staining based flow cytometry analysis (reference value: 0 %); assay type: functional; conditions: 28 h
# [20] = tested on: MCF7; assay: Induction of apoptosis in human MCF7 cells assessed as necrotic cells preincubated for 4 hrs followed by ultrasonic sound treatment for 30 sec and measured after 24 hrs by Annexin V-FITC/propidium iodide double staining based flow cytometry analysis (reference value: 1.05%); assay type: functional; conditions: 28 h
# [21] = tested on: MCF7; assay: Induction of apoptosis in human MCF7 cells at 10 uM incubated for 24 hrs by Annexin V-FITC/propidium iodide double staining based flow cytometry analysis; assay type: functional, cell-based
# [22] = target: Nuclear factor NF-kappa-B complex (Homo sapiens) (UniProt Q00653+P19838+Q04206); assay: Inhibition of H2O2-induced NFkappaB activation in human MCF7 cells at 1 uM measured for 12 hrs by ELISA analysis; assay type: cell-based
# [23] = Drug uptake in BALB/c mouse limb xenografted with human MCF7 cells assessed as accumulation of red fluorescence at 1.5 mg/kg, iv measured at 6 hrs by fluorescence imaging analysis; assay type: ADME, organism-based; conditions: in vivo
# [24] = Drug uptake in BALB/c mouse skin xenografted with human MCF7 cells assessed as accumulation of red fluorescence at 1.5 mg/kg, iv measured at 6 hrs by fluorescence imaging analysis; assay type: ADME, organism-based, Skin of body; conditions: in vivo
# [25] = Toxicity in BALB/c mouse xenografted with human MCF7 cells assessed as drug tolerance at 1.5 mg/kg, iv administered for 10 days followed by ultrasonic sound treatment for 2 to 6 hrs and measured immediately; assay type: organism-based; conditions: in vivo, time 242-246 hrs
# [26] = Toxicity in BALB/c mouse xenografted with human MCF7 cells assessed as decrease in body weight at 1.5 mg/kg, iv administered for 10 days followed by ultrasonic sound treatment for 2 to 6 hrs and measured immediately; assay type: organism-based; conditions: in vivo, time 242-246 hrs
# [27] = Downregulation of IL-6 expression level in serum of BALB/c mouse at 1.5 mg/kg, iv measured at 12 to 24 hrs; assay type: functional; conditions: time 12-24 hrs
# [28] = tested on: MCF7; assay: Antitumor activity against human MCF7 cells xenografted in BALB/c mouse assessed as tumor growth inhibition at 1.5 mg/kg, iv administered for 10 days followed by ultrasonic sound treatment for 2 to 6 hrs and measured immediately; assay type: functional; conditions: time 242-246 hrs, read-out: TGI
# [29] = tested on: Mus musculus; assay: Induction of hyperthermia in BALB/c mouse xenografted with human MCF7 cells assessed as burning of skin at 1.2 mg/kg, iv administered for 10 days followed by ultrasonic sound treatment for 2 to 6 hrs and measured immediately; assay type: functional, organism-based; conditions: time 242-246 hrs
# [30] = Toxicity in BALB/c mouse xenografted with human MCF7 cells assessed as heart damage at 1.2 mg/kg, iv administered for 10 days followed by ultrasonic sound treatment for 2 to 6 hrs and measured immediately by Hand E staining based analysis; assay type: organism-based; conditions: in vivo, time 242-246 hrs
# [31] = Toxicity in BALB/c mouse xenografted with human MCF7 cells assessed as liver damage at 1.2 mg/kg, iv administered for 10 days followed by ultrasonic sound treatment for 2 to 6 hrs and measured immediately by Hand E staining based analysis; assay type: organism-based; conditions: in vivo, time 242-246 hrs
# [32] = Toxicity in BALB/c mouse xenografted with human MCF7 cells assessed as spleen damage at 1.2 mg/kg, iv administered for 10 days followed by ultrasonic sound treatment for 2 to 6 hrs and measured immediately by Hand E staining based analysis; assay type: organism-based; conditions: in vivo, time 242-246 hrs
# [33] = Toxicity in BALB/c mouse xenografted with human MCF7 cells assessed as lung damage at 1.2 mg/kg, iv administered for 10 days followed by ultrasonic sound treatment for 2 to 6 hrs and measured immediately by Hand E staining based analysis; assay type: organism-based; conditions: in vivo, time 242-246 hrs
# [34] = Toxicity in BALB/c mouse xenografted with human MCF7 cells assessed as kidney damage at 1.2 mg/kg, iv administered for 10 days followed by ultrasonic sound treatment for 2 to 6 hrs and measured immediately by Hand E staining based analysis; assay type: organism-based; conditions: in vivo, time 242-246 hrs
# [35] = Toxicity in BALB/c mouse xenografted with human MCF7 cells assessed as kidney damage at 1.2 mg/kg, iv administered for 10 days and measured immediately by Hand E staining based analysis; assay type: organism-based; conditions: in vivo, 240 h, time 10 day
# [36] = Toxicity in BALB/c mouse xenografted with human MCF7 cells assessed as lung damage at 1.2 mg/kg, iv administered for 10 days and measured immediately by Hand E staining based analysis; assay type: organism-based; conditions: in vivo, 240 h, time 10 day
# [37] = Toxicity in BALB/c mouse xenografted with human MCF7 cells assessed as spleen damage at 1.2 mg/kg, iv administered for 10 days and measured immediately by Hand E staining based analysis; assay type: organism-based; conditions: in vivo, 240 h, time 10 day
# [38] = Toxicity in BALB/c mouse xenografted with human MCF7 cells assessed as liver damage at 1.2 mg/kg, iv administered for 10 days and measured immediately by Hand E staining based analysis; assay type: organism-based; conditions: in vivo, 240 h, time 10 day
# [39] = Toxicity in BALB/c mouse xenografted with human MCF7 cells assessed as heart damage at 1.2 mg/kg, iv administered for 10 days and measured immediately by Hand E staining based analysis; assay type: organism-based; conditions: in vivo, 240 h, time 10 day
# [40] = Induction of hyperthermia in solvent assessed as increase in temperature at 10 uM treated with ultrasonic sound for 2 mins and measured after 5 mins; conditions: time 7.0 min
# Nuclear factor NF-kappa-B complex (Homo sapiens), sequence (P19838 whole entry, looked up): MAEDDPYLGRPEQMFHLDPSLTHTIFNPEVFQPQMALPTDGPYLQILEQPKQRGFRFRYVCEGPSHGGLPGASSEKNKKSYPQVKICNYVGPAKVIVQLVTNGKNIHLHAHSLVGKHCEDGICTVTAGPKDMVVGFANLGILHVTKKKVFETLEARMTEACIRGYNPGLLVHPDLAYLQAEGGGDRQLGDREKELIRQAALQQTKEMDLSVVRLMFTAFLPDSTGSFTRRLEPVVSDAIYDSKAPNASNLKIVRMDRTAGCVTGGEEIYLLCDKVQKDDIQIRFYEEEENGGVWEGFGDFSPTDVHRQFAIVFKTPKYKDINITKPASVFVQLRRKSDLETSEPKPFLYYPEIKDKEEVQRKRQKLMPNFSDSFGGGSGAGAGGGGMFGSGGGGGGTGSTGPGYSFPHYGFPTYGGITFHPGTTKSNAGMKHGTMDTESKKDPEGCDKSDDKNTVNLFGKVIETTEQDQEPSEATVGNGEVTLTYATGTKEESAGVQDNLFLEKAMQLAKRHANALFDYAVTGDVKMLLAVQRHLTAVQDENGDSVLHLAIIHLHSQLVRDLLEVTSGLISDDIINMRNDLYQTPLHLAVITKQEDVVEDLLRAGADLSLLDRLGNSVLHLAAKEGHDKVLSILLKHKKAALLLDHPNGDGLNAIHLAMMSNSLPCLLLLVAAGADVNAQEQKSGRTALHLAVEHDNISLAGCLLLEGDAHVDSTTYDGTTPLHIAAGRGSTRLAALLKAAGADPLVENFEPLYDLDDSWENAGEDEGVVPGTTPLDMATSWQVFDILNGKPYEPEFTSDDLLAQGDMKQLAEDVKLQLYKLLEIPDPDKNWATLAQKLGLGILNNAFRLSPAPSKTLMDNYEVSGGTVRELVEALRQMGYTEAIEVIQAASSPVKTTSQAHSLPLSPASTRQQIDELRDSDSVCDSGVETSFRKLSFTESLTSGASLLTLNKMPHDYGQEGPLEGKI
# Nuclear factor NF-kappa-B complex (Homo sapiens), sequence (Q00653 whole entry, looked up): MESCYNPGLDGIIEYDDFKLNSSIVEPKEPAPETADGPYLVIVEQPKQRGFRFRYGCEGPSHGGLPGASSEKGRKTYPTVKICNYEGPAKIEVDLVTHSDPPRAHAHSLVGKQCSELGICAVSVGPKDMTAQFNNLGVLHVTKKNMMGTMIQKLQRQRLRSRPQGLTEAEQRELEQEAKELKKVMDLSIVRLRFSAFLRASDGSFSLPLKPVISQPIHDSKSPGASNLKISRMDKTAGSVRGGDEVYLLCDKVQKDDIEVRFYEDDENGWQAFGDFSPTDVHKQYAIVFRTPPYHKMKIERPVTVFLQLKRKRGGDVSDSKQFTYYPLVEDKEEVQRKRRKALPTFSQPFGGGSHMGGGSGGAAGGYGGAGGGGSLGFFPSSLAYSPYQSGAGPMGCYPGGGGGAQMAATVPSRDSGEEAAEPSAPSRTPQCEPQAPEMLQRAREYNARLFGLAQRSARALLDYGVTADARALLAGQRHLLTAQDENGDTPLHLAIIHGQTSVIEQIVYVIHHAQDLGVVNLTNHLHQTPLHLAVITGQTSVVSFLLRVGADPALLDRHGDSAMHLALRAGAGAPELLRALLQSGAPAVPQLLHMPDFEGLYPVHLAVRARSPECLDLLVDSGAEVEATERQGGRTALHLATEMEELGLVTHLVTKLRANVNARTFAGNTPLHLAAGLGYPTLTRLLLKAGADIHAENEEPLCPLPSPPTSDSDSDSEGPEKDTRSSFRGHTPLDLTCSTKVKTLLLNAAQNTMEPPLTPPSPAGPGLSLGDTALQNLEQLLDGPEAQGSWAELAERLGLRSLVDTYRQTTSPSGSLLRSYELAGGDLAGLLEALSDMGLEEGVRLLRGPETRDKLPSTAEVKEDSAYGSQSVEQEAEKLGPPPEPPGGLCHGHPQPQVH
# Nuclear factor NF-kappa-B complex (Homo sapiens), sequence (Q04206 whole entry, looked up): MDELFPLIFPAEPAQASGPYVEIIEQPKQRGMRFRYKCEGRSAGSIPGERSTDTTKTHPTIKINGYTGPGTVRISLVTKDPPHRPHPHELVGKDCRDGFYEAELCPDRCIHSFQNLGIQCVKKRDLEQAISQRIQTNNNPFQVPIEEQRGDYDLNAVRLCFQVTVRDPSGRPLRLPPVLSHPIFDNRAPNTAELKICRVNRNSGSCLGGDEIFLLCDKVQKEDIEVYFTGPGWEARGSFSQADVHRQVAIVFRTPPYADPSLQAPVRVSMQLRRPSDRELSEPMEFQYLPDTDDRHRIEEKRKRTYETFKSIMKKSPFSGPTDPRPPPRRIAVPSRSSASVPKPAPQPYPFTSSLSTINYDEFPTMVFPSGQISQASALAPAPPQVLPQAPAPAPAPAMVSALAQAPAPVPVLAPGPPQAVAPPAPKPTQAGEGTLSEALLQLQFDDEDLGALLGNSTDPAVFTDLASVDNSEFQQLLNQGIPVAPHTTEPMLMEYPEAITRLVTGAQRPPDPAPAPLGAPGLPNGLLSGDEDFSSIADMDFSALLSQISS
compound,measurement,setting,value
C=CC1=C(C)c2cc3[nH]c(cc4nc(cc5[nH]c(cc1n2)c(C)c5CCC(=O)O)C(CCC(=O)O)=C4C)c(C)c3C=C,Activity,[1],Active
COc1cc(/C=C/C(=O)CC(=O)/C=C/c2ccc(O)c(OC)c2)ccc1O,Activity,[1],Active
COc1cc(/C=C/c2ccc(N(c3ccccc3)c3ccc(-c4ccc(-c5ccc(N(c6ccccc6)c6ccc(/C=C/c7cc(OC)cc(OC)c7)cc6)cc5)c5nsnc45)cc3)cc2)cc(OC)c1,Drug uptake,[2],Active
same,IC50,[3],2.4 µM
same,Activity,[4],Active
same,Activity,[5],inactive
same,Activity,[6],12.4%
same,Activity,[7],92.8%
same,EC50,[8],0.0689 µM
same,inhibition at 10 µM,[9],76%
same,Activity,[10],Active
same,Activity,[11],Active
same,Activity,[12],Active
same,Activity,[13],Active
same,IC50,[1],1.6 µM
same,IC50,[14],1.6 µM
same,IC50,[15],0.55 µM
same,IC50,[16],0.29 µM
same,Activity,[17],29.7%
same,Activity,[18],70%
same,Activity,[19],0.29%
same,Activity,[20],0.045%
same,Activity,[21],inactive
same,inhibition,[22],Active
same,Drug uptake,[23],Active
same,Drug uptake,[24],Active
same,Activity,[25],Non-Toxic
same,Activity,[26],Non-Toxic
same,Activity,[27],42%
same,inhibition in vivo at 1.5 mg/kg,[28],70%
same,Activity,[29],Active
same,Activity,[30],Non-Toxic
same,Activity,[31],Non-Toxic
same,Activity,[32],Non-Toxic
same,Activity,[33],Non-Toxic
same,Activity,[34],Non-Toxic
same,Activity,[35],Non-Toxic
same,Activity,[36],Non-Toxic
same,Activity,[37],Non-Toxic
same,Activity,[38],Non-Toxic
same,Activity,[39],Non-Toxic
same,T,[40],3.9 °C
COc1cc(/C=C/c2ccc(N(c3ccc(/C=C/c4cc(OC)cc(OC)c4)cc3)c3ccc(-c4ccc(-c5ccc(N(c6ccc(/C=C/c7cc(OC)cc(OC)c7)cc6)c6ccc(/C=C/c7cc(OC)cc(OC)c7)cc6)cc5)c5nsnc45)cc3)cc2)cc(OC)c1,IC50,[3],3.6 µM
same,Activity,[4],Active
same,Activity,[5],inactive
same,Activity,[6],5.8%
same,Activity,[7],97.5%
same,EC50,[8],0.217 µM
same,inhibition at 10 µM,[9],72%
same,Activity,[10],Active
same,IC50,[1],3.5 µM
same,IC50,[14],3.5 µM
same,IC50,[15],0.83 µM
same,IC50,[16],0.61 µM
same,Activity,[17],35.4%
same,Activity,[18],28.7%
same,Activity,[19],3.59%
same,Activity,[20],2.33%
same,Activity,[21],inactive
same,inhibition,[22],Active
same,T,[40],5.9 °C
COc1cc(/C=C/c2ccc(N(c3ccc(Br)cc3)c3ccc(-c4ccc(-c5cccs5)c5nsnc45)cc3)cc2)cc(OC)c1,IC50,[3],9.2 µM
same,Activity,[4],Active
same,Activity,[5],inactive
same,Activity,[6],4.5%
same,Activity,[7],48.1%
same,EC50,[8],0.0729 µM
same,inhibition at 10 µM,[9],48%
same,Activity,[10],Active
same,IC50,[14],4.2 µM
same,IC50,[15],2 µM
same,IC50,[16],1.2 µM
same,Activity,[17],56.4%
same,Activity,[18],87.5%
same,Activity,[19],1.74%
same,Activity,[20],4.37%
same,Activity,[21],inactive
same,inhibition,[22],Active
same,T,[40],3.4 °C
